Data published in patent US20190343858A1, “METHOD OF REGULATING THE CIRCADIAN RHYTHM OF AN INDIVIDUAL COMPRISING ADMINISTERING AN EFFECTIVE AMOUNT OF A CIRCADIAN RHYTHM REGULATOR CONTAINING 1,2-DI-O-GALLOYL-4,6-O-(S)-HEXAHYDROXYDIPHENOYL-B-D-GLUCOSE” (ORYZA OIL & FAT CHEMICAL CO., LTD,, priority 2017, published 2019).

Test system: BMAL1 gene
Test: Evaluation of the BMAL1 gene-expression-promotion activity (BMAL1 mRNA amount via reverse-transcribed cDNA)
Format: cell-based
Settings: rat-muscle myoblasts C2Cl2, differentiation-induction, cultivated one week; 3 μg/mL; Dunnett, ** p<0.01
Experimental: Differentiation-induction was done to the rat-muscle myoblasts C2Cl2. At the same time, the purple-tea extract of 0.1, 1.0, 3.0 and 10 μg/mL, and the GHG of 0.1, 1.0 and 3 μg/mL, was respectively added to such myoblasts and cultivated for one week. After that, an RNA extraction was done to determine, by using a reverse-transcribed cDNA, the amount of mRNA and of the BMAL1 gene.
A significance-test was done by the Dunnett Method, and the double asterisk ** means p<0.01. Also, no active components were added to the “control,” but the purple-tea extract (GHG-content extract) was added to the “PTE.”

## O=C(OC1OC2COC(=O)c3cc(O)c(O)c(O)c3-c3c(cc(O)c(O)c3O)C(=O)OC2C(O)C1OC(=O)c1cc(O)c(O)c(O)c1)c1cc(O)c(O)c(O)c1 [GHG, 1,2-di-O-galloyl-4,6-O—(S)-hexahydroxydiphenoyl-ß-D-glucose]
  expression-level of the BMAL1 gene against the Control: significantly was seen to have increased
